According to patent US6958236B2, “Control of gene expression in plants” (priority 2000, dated 2005):
Values joined by “and” are separate entries in the source; they are usually repeats but may differ in a detail not shown here. Equal values may be shown once.

B1: MCV: EcR chimera: Manduca sexta C+D domains, Chironomus tentans E domain, VP16; SEQ ID NO:91-92 (protein)
chain: MGREELSPASSINGCSTDGEPRRQKKGPAPRQQEELCLVCGDRASGYHYNALTCEGCKGFFRRSVTKNAVYICKFGHACEMDMYMRRKCQECRLKKCLAVGMRPECVVPESTCKNKRREKEAQREKDKLPVSTTTVDDHMPAIMQCDPPPPEAARIHEVVPRFLTEKLMEQNRLKNVTPLSANQKSLIARLVWYQDGYEQPSEEDLKRITTELEEEEDQEHEANFRYITEVTILTVQLVVEFAKGLPAFIKIPQEDQITLLKACSSEVMMLRMARRYDHDSDSILFANNTAYTKQTYQLAGMEETIDDLLHFCRQMYALSIDNVEYALLTAIVIFSDRPGLEKAEMVDIIQSYYTETLKVYIANRHGGESRCSVQFAKLLGILTELRTMGNKNSEMCFSLKLRNRKLPRFLEEVWDVGDVKLAPPTDVSLGDELHLDGEDVAMAHADALDDFDLDMLGDGDSPGPGFTPHDSAPYGALDMADFEFEQMFTDALGIDEYGG

Legend:
[1] = system: Transgenic maize plants containing pCGS601 and pCGS202; experiment: Chemical induction of transgenic maize plants, luciferase activity of leaf extract; type: in vivo
Description: A formulation mixture containing 10% of a 2.0 mM tebufenozide solution in ethanol and 1% surfactant is applied directly to the leaves of the transgenic maize plants. The solution is left on the leaves between 18 and 40 hours. Leaves are then frozen in liquid nitrogen and ground to a powder. Subsequently, leaves are homogenized in cell culture lysis reagent (CCLR; 25 mM Tris-phosphate pH 7.8, 2 mM DTT, 2 mM 1,2-diaminoclyclohexane-N,N,N′,N′-tetraacetic acid, 10% glycerol, and 1% triton X-100). After spinning for 7 minutes at 14,000 g to pellet the cell debris, 20 μl of the supernatant is assayed for luciferase activity by the standard method (as described in the preceding examples).
Six plants are treated with chemistry: three with ethanol as control and three with tebufenozide. After 40 hours, plants are assayed for luciferase activity.
To determine fold induction with tebufenozide, leaves of individual plants are compared for activity. Using the same plant, one leaf is treated with ethanol and another with tebufenozide. The plants are incubated for 18 hours and assayed for luciferase activity as described above.

[2] = system: GAL4×10-Luciferase vector pCGS206; experiment: Tobacco BY2 suspension cells bombarded with receptor vector and GAL4x10-Luciferase vector, GUS-normalized luciferase; type: cell-based, Nicotiana tobaccum L. cv. Bright Yellow 2; settings: absence of the EcR receptor
Description: The GAL4-MV expression vector pCGS432 and the GAL4×10-Luciferase vector pCGS206 are simultaneously delivered into BY2 suspension cells (Nicotania tobacum L. cv. Bright Yellow 2) by high velocity microprojectile bombardment. A β-glucuronidase (GUS) vector is included as an internal control for transfection efficiency between samples. Transfected cells are incubated overnight in the presence and absence of the appropriate chemical ligand (tebufenozide (Teb), RH5889) in BY2 liquid culture media. After incubation, the cells are harvested and lysed by mechanical disruption. Cellular debris is removed by centrifugation at 20,800 g at 4° C. for 10 minutes. Cell lysates are assayed for luciferase expression levels using the Promega Luciferase Kit (Promega cat #E1500) using a Turner Designs TD 20/20 luminometer. GUS expression levels are determined using the GUS-Light kit (Tropix). […]
The GAL4-Manduca EcR-C1 expression vectors (pCGS441, pCGS442, and pCGS443) and the GAL4×10-Luciferase vector pCGS206 (Example 10) are simultaneously delivered into BY2 suspension cells (Nicotiana tobaccum L. cv. Bright Yellow 2) by high velocity microprojectile bombardment. […] Cell lysates are assayed for luciferase expression levels using the Promega Luciferase Kit (cat #E1500) using a Turner Designs TD 20/20 luminometer. β-glucuronidase expression levels are determined using the GUS-Light kit (Tropix). […]

[3] = system: Transgenic plants harboring DNA from the plasmids pCGS202 and pCGS601; experiment: Chemical induction of transgenic maize plants, photon emission of leaves after luciferin spray; type: in vivo
Description: This mixture is applied directly to one leaf of a plant while a control formulation mixture containing ethanol instead of tebufenozide is applied to another leaf. Treatments are left on the leaves between 24-48 hours. Plants are then treated by spraying the leaves with a mixture containing 7.5 mM luciferin and 1% surfactant and incubating for 5 minutes. Either whole plants or tissues are placed into a dark box and photon emission is monitored using a digital camera and software that counts the accumulated photons that are emitted. Both the image of the tissue and the total photon count is recorded.
Plants at V5 stage are treated as above. The plants treated with tebufenozide emit substantial amounts of light compared with those treated with ethanol only. The table below contains actual counts of leaf samples from maize plants transformed with pCGS601 and pCGS202.
Late stage post pollinated maize plants are also treated as above. Leaves are analyzed as above and the total photon counts are recorded in the table below.

pCGS154 reporter = experiment: Transient transfection of S2 Drosophila cells with luciferase reporter and EcR receptor plasmids; type: cell-based; settings: Example 9, 0.2 μM tebufenozide

Molecule	Activity (luciferase) ([1]; leaves treated with 10% of 2.0 mM tebufenozide solution, 1% surfactant, 40 hours, individual plants 4-6)	fold induction after treatment with tebufenozide ([1]; maize, in vivo, 18 h, 0.2 mM)	induction above the ethanol controls ([1]; transgenic maize plants, 40 hours)	activation of the luciferase reporter without receptor [2]	Fold Induction ([3]; in vivo) [Fold]	Total Photons Counted ([3]; leaf, late stage post pollinated maize plants)	Fold Induction ([3]; leaf, late stage post pollinated maize plants, tebufenozide vs ethanol) [Fold]	Total Photons Counted ([3]; leaf, plants at V5 stage, 2.0 mM RH5992 in 1% surfactant, 24-48 hours)	Fold Activation With Chemistry (pCGS154 reporter) [fold]
CCc1ccc(C(=O)NN(C(=O)c2cc(C)cc(C)c2)C(C)(C)C)cc1 [tebufenozide]	2729 and 745.3 and 2373	10-40 fold	significant induction	does not activate the reporter in the absence of the EcR receptor	116	110,766	30	187,784	–
B1	–	–	–	–	–	–	–	–	553.3
